Like-named read-outs stand apart in the source and are kept apart here.
What was measured:
hH3R [1] = conditions: previously reported competition binding studies, cited from earlier work
[2] = target: T1, human histamine H3 receptor (hH3R) (Homo sapiens, UniProt Q9Y5N1); assay: Re-equilibration of pre-bound antagonist, Schild-plot analysis (BRET Gβ1γ2 release assay); format: cell-based; conditions: for type of antagonism after 10 min re-equilibration: VUF8328, 1 h antagonist pre-incubation; for type of antagonism, response measured directly following agonist stimulation: imetit or VUF8328, 1 h antagonist pre-incubation
T1 construct: expressed in transfected cells; host or cells: HEK293T cells, transient transfection (hH3R in pcDEF3)
Method: Receptor-induced Venus-Gβ1γ2 recruitment to masGRK3ct-Nluc can be detected after different time intervals following stimulation with agonist, which offers the opportunity to evaluate the re-equilibration time of pre-bound antagonist within the same agonist-induced response. Cells were pre-incubated for 1 h with multiple concentrations of antagonist and subsequently stimulated with increasing concentrations agonist and BRET ratio was calculated either immediately after agonist addition or after 10 min re-equilibration (Figure 3A).
(§1) Agonist-induced BRET between Venus-Gβ1γ2 and masGRK3ct-Nluc was measured on adherent HEK293T cells co-expressing hH3R and Gαi2 in the presence of NanoGlo® (3.2 µL/mL) using a Mithras LB940 multimode microplate reader (Berthold, Germany). Cells were stimulated with histamine in the absence and presence of antagonist in HBSS buffer, and BRET (540–40 nm) and luminescence (480–20 nm) signals were monitored either immediately or after 10 min at 25 °C. […] Next, cells were incubated in HBSS and stimulated with 10 μM imetit after various incubation times. BRET between Venus-G1βγ2 and masGRK3ct-Nluc was immediately measured upon imetit stimulation and BRET ratio after 10 s were plotted. Re-equilibration of pre-bound antagonists was measured upon pre-incubation of the cells with increasing concentrations of antagonist for one hour prior to the addition of increasing concentrations imetit or VUF8328 and BRET ratio was calculated either immediately after agonist addition (0–3 min) or after 10 min re-equilibration.
Equiactive agonist concentrations for Schild analysis were determined from concentration response curves at 10 % max agonist response (vide supra) in the absence and presence of increasing antagonist concentrations. Dose ratios (DR) were calculated by dividing the equiactive agonist concentration in the presence of antagonist by the equiactive agonist concentration in the absence of antagonist.

[3] = target: T1, human histamine H3 receptor (hH3R); assay: Recovery of hH3R responsiveness after washout of pre-bound antagonist (BRET Gβ1γ2 release assay); format: cell-based; conditions: for RecT (receptor recovery time, 1/krec): 1 h pre-incubation at 10 × IC50, washout, 10 µM imetit, measured in singlo; for recovery of H3R-induced Gβ1γ2 release to steady-state level upon washout: agonist stimulation after washout of pre-bound antagonist
Method: Cells were then stimulated with a saturating concentration of imetit (10 µM) after different time intervals and BRET changes between Venus-Gβ1γ2 and masGRK3ct-Nluc were measured directly and BRET ratio 10 s after agonist stimulation were plotted (Figure 2A,B).
as §1
The receptor recovery time (RecT) was calculated as the reciprocal of the krec.

H3R = tested on: H3R; design: method as in PMID 30249614, PMID 30359639; conditions: intact HEK293T cells; cited from earlier work
[4] = target: T1, human histamine H3 receptor (hH3R); assay: BRET between Venus-Gβ1γ2 and masGRK3ct-Nluc to measure hH3R-induced Gαi2 activation in HEK293T cells; format: cell-based; conditions: for inhibition of Venus-Gβ1γ2 recruitment to masGRK3ct-Nluc in response to 1 µM histamine: antagonist 10 µM; for agonist efficacy class in the Gβ1γ2 release assay: HEK293T cells co-expressing hH3R and Gαi2; for pEC50 ± S.E.M. / intrinsic activity (α): hH3R-mediated Gαi2 activation in HEK293T cells; for pEC50 ± S.E.M.: BRET ratio after 10 min, mean ± S.E.M. of three experiments
Method: Cells were transiently transfected in a 10 cm^2 dish with plasmids coding for Venus155-239-Gβ1 (0.4 µg), Venus1-155-Gγ2 (0.4 µg), masGRK3ct-Nluc (0.4 µg), hH3R (0.4 µg), Gαi2-protein (1.2 µg), and empty pcDEF3 (2.2 µg) using 20 µg 25 kDa linear polyethylenimine (Polysciences Inc, Warrington, PA, USA), as previously described. The next day, 50,000 cells/well were transferred to a poly-L-lysine coated black 96 well plates (Greiner Bio-one GmbH, Frickenhausen, Germany) and grown for an additional 24 h.
as §1
Ligand-induced BRET changes were calculated by dividing emission at 540–40 nm (Venus) by emission at 480–20 nm (Nluc) and baseline-corrected by subtracting BRET of vehicle. […] Agonist and antagonist concentration-response curves were fitted to three-parameter response models to obtain EC50 and IC50 values, respectively. […] For receptor recovery the vehicle corrected BRET ratio at 10 s after agonist addition was plotted over time.

hH3R [5] = tested on: hH3R; design: method as in PMID 30249614; conditions: CAMYEL biosensor; cited from earlier work
[6] = 1 h antagonist pre-incubation, agonist VUF8328, BRET after 10 min re-equilibration
[7] = 1 h antagonist pre-incubation, agonist VUF8328, BRET measured immediately
[8] = 1 h antagonist pre-incubation, agonist imetit, BRET measured immediately

T1 sequence (Q9Y5N1 whole entry): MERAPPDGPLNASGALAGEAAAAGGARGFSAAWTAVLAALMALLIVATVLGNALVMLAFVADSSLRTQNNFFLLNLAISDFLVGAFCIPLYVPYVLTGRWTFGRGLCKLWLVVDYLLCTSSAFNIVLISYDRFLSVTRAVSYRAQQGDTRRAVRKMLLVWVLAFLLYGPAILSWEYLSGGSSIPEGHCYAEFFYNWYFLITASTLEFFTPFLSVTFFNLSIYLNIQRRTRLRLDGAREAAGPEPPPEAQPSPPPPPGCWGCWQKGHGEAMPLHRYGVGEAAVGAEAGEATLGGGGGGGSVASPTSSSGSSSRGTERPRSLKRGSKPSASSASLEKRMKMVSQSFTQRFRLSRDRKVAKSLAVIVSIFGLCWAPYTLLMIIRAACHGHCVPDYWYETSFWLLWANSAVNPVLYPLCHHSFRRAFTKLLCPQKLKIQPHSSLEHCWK

NCCc1c[nH]cn1 [Histamine, histamine]
pKi (hH3R [1]; agonists): 6.7

CCNC(=O)[C@H]1C[C@@](F)(c2ccc(CN3CCCC3)c(F)c2)C1 [PF03654746]
Schild slope, VUF8328 (10 min) [2, 6]: 1.2 ± 0.1
pA2, VUF8328 (10 min) [2, 6]: 9.6 ± 0.2
Schild slope, VUF8328 (0 min) [2, 7]: 1.5 ± 0.2
pA2, VUF8328 (0 min) [2, 7]: 9.3 ± 0.2
Schild slope, Imetit (0 min) [2, 8]: 1.0 ± 0.1
pA2, Imetit (0 min) [2, 8]: 9.8 ± 0.1
type of antagonism after 10 min re-equilibration [2]: near-surmountable
type of antagonism, response measured directly following agonist stimulation [2]: insurmountable antagonists
pKi (hH3R [1]; antagonists): 9.3
RecT (receptor recovery time, 1/krec) [3]: 3.6 ± 0.3 min
hH3R recovery slower than upon washout of iodophenpropit and pitolisant ([3]; after antagonist washout): 2 to 2.5 fold
recovery of H3R-induced Gβ1γ2 release to steady-state level upon washout [3]: < 20 min
residence time (H3R): approximately 15 min
pKB ([4]; calculated from IC50 values, inhibition of histamine-induced (1 µM) BRET ratio, 10 min, mean ± S.E.M.): 9.9 ± 0.1

CN1CCN(C(=O)c2cc3cc(Cl)ccc3[nH]2)CC1 [JNJ7777120]
inhibition of Venus-Gβ1γ2 recruitment to masGRK3ct-Nluc in response to 1 µM histamine [4]: ineffective

N=C(N)SCCCc1cnc[nH]1 [VUF8328]
pKi (hH3R [1]; agonists): 8.5
agonist efficacy class in the Gβ1γ2 release assay [4]: partial agonist
pEC50 ± S.E.M. [4]: 9.4 ± 0.1
intrinsic activity (α) ([4]; mean ± S.E.M.): 0.7 ± 0.2

c1ncc(CC2CCNCC2)[nH]1 [immepip]
pKi (hH3R [1]; agonists): 8.8
agonist efficacy class in the Gβ1γ2 release assay [4]: full agonist
pEC50 ± S.E.M. [4]: 9.9 ± 0.1
intrinsic activity (α) ([4]; mean ± S.E.M.): 1.0 ± 0.1

CNC(=NCCSCc1csc(N=C(N)N)n1)NC#N [tiotidine]
inhibition of Venus-Gβ1γ2 recruitment to masGRK3ct-Nluc in response to 1 µM histamine [4]: ineffective

COc1ccc(CN(CCN(C)C)c2ccccn2)cc1 [mepyramine]
inhibition of Venus-Gβ1γ2 recruitment to masGRK3ct-Nluc in response to 1 µM histamine [4]: ineffective

N=C(N)SCCc1cnc[nH]1 [Imetit]
pKi (hH3R [1]; agonists): 8.6
EC50 [4]: 0.251 nM
agonist efficacy class in the Gβ1γ2 release assay [4]: full agonist
intrinsic activity (α) ([4]; mean ± S.E.M.): 1.1 ± 0.1

Clc1ccc(CCCOCCCN2CCCCC2)cc1 [Pitolisant]
time to full recovery of hH3R responsiveness following washout (hH3R [5]): > 30 min
Schild slope, VUF8328 (10 min) [2, 6]: 1.1 ± 0.1
Schild slope, VUF8328 (0 min) [2, 7]: 1.4 ± 0.0
Schild slope, Imetit (0 min) [2, 8]: 1.1 ± 0.0
type of antagonism after 10 min re-equilibration [2]: surmountable
type of antagonism, response measured directly following agonist stimulation [2]: insurmountable antagonists
RecT (receptor recovery time, 1/krec) [3]: 1.7 ± 0.3 min
recovery of H3R-induced Gβ1γ2 release to steady-state level upon washout [3]: < 20 min
inhibition of Venus-Gβ1γ2 recruitment to masGRK3ct-Nluc in response to 1 µM histamine [4]: fully inhibited

Source: paper PMC6695674, “Bioluminescence Resonance Energy Transfer Based G Protein-Activation Assay to Probe Duration of Antagonism at the Histamine H3 Receptor” (International Journal of Molecular Sciences, 2019)
